Where no end group is shown, it is not given here.

For assay [1], the system named is HEK293 cells. Put plainly: Nuclear translocation of MBD-GFP32 after endocytosis inhibitors. The settings on record: inhibitor 10 μg/ml one hour; 500 ng/ml MBD-GFP32, twenty minutes; FIG. 19. The format is cell-based, human. How it is done: HEK293 cells were pre-incubated with inhibitors nystatin (inhibitor of caveolin pathway) or chlorpromazine (inhibitor of clathrin pathway) for one hour at 10 μg/ml. […] Extracts were assayed by anti-GFP ELISA.

Assay [2] has as its system HEK 293 cells. The experiment in a line: Co-apoptotic activity of MBD peptides and paclitaxel, caspase-3. The format is cell-based, human. The settings on record: normalized to MBD2 = 100 on a molar basis; peptide 50 ng/ml, 0.3 ng/ml paclitaxel, 8 hours. The procedure: Peptides (50 ng/ml) were added to 80% confluent HEK 293 cells grown in DMEM supplemented with 0.3 ng/ml paclitaxel concurrent with peptide. Caspase-3 activity was measured in cell extracts 8 hours post-addition.
(§1) Apoptotic activity is expressed in arbitrary caspase-3 units normalized to MBD2 on a molar basis (MBD2 activity was defined as 100 units (avg. of 3 experiments); “nd” indicates “not done”; “ps” indicates phosphoserine. Metal-binding is expressed as a percentage of loaded peptide bound to a Ni-NTA resin; approximately 1-1.5 mg of peptide were loaded on the column. Cell uptake was determined using genetic fusions to GFP as described in Example 9.

Assay [3] is described as follows: Metal-binding of peptides to Ni-NTA resin. The settings on record: percentage of loaded peptide bound to Ni-NTA resin; 1-1.5 mg loaded. The procedure: as §1
The test system of assay [4] is HEK293 cells. The experiment in a line: Nuclear translocation of biotinylated peptide/streptavidin-HRP conjugate. The format is cell-based, human. Particulars: approx. 90 Kd conjugate, 20 minutes; FIG. 24. How it is done:
Biotinylated MBD peptides MBD9, MBD20 ([…] (SEQ ID NO: 37): the MBD core 14mer is underlined, and the caveolin consensus binding sequence is bolded) or MBD21 ([…] (SEQ ID NO: 38): the MBD core 14mer is underlined, and the caveolin consensus binding sequence is bolded) were each mixed with streptavidin-horseradish peroxidase conjugate (3-6× molar excess of MBD peptide) and added to HEK293 cells. After 20 minutes, nuclear and cytoplasmic extracts were prepared as described in Example 20 and assayed for peroxidase activity.

Assay [5] concerns HEK293 cells. Put plainly: Caspase-3 apoptosis assay on nutritionally stressed HEK293 cells (Examples 1-2). The format is cell-based, human. The procedure: Human embryonal kidney 293 (HEK293) cells were grown in Dulbecco's Modified Eagle Medium (D-MEM) supplemented with fetal calf serum at 2%, 4%, 6%, or 8%. When the cells reached 80-85% confluency (cell titer approximately 2.1×10^6 cells per plate), 5 μg of IGFBP-3 or buffer control was added to each plate. The cells were incubated at 37° C. overnight. The next day the medium was removed and the cells were rinsed with trypsin-EDTA (0.25% trypsin, 1 mM EDTA) plus 1× phosphate buffered saline. The cells were centrifuged and the supernatant was removed. ApoAlert caspase-3 assay kit from Clontech Inc (Palo Alto, Calif.) was used to measure apoptosis. The cells were resuspended in 50 μl of chilled cell lysis buffer and incubated on ice for 10 minutes. The resulting cell, lysates were centrifuged at 14000 rpm in a Beckman microcentrifuge for 3 minutes at 4 C. The supernatant was transferred to new tubes and 50 μl of 2× reaction buffer/DTT plus 5 μl of 1 mM caspase-3 substrate was added to each tube. After incubating at 37 C. for 1 hour in a water bath, the samples were read at 405 nm in a microplate reader.
Peptides derived from IGFBP-3 were tested for pro-apoptotic activity essentially as described in Example 1.
The peptides tested are described in Table 1 (peptides marked with an asterisk include a hexahistidine tag).

Assay [6] can be described thus: Binding of short peptides to Ni-His-Bind column, imidazole elution. The procedure:
We further tested the ability of IGFBP-3-derived sub-domains and peptides to bind metal. As shown in Example 5, below, a defined fragment of IGFBP-3 generated in vivo can be captured on IMAC. Two short peptides were passed through a Ni-His-Bind column:
Both peptides bound specifically to the column. Peptide 1 eluted with 60 mM imidazole, whereas higher concentrations of imidazole (1M) were necessary to elute Peptide 2.

The test system of assay [7] is MA-16C mammary adenocarcinoma tumors. Put plainly: MA-16C mammary adenocarcinoma tumor implants. Format: in vivo, female C3H mice. The settings on record: DOX study. The procedure:
Fragments of MA-16C mammary adenocarcinoma tumors were implanted subcutaneously into female C3H mice (8-11 animals per group). The animals were treated with vehicle alone, IGFBP-3 (4 mg/kg/day for 21 days by subcutaneous injection), doxorubicin (2 mg/kg on days 1 and 8 by intravenous injection), or IGFBP-3 plus doxorubicin. A separate study was performed where the animals were treated with vehicle alone, 5-fluorouracil (10 mg/kg on days 1-5 by intraperitoneal injection), or IGFBP-3 plus 5-fluorouracil. Tumor size was measured at day 18, and the mice were sacrificed at day 21, and the implanted tumors were removed for determination of caspase-3 activity (a marker of apoptosis-only performed for DOX groups).

Assay [8] relates to HEK293 cells. Put plainly: Co-apoptotic activity with paclitaxel in presence of plasma proteins. The format is cell-based, human. The settings on record: 50 ng/ml, 0.3 ng/ml paclitaxel, eight hours. The procedure: Co-apoptotic activity of MBD peptides or IGFBP-3 with paclitaxel was tested in the presence or absence of two plasma proteins; fibronectin and fibrinogen. MBD peptides or IGFBP-3, (50 ng/ml), 0.3 ng/ml paclitaxel, and plasma proteins (200 ng/ml) were added to 80% confluent HEK293 cells grown in DMEM essentially as described in Example 8. Caspase-3 was measured after an eight hour incubation.
Apoptotic activity was calculated in arbitrary caspase-3 units normalized to MBD2 (MBD2 activity was defined as 100 units) Results are summarized in Table 4 (average of 3 experiments).

Assay [9] deals with HEK 293 cells. Put plainly: IGF-independence of apoptosis stimulation, caspase-3. Format: cell-based, human. The procedure: HEK 293 cells were cultured under stressed conditions (low serum or in the presence of paclitaxel) with and without IGFBP-3 (50 ng/ml) or MBD2 (50 ng/ml). Apoptosis was assayed using the caspase-3 assay as described in Example 1.
Assay [10] relates to HEK 293 cells. Put plainly: Integrin dependence of pro-apoptotic activity, caspase-3. Format: cell-based, human. The settings on record: with paclitaxel; FIG. 12A. How it is done:
HEK 293 cells were cultured as described in Example 10, including paclitaxel. Cells were incubated with MDB2 either alone or in combination with an anti-adhesion protein antibody. Antibodies were against integrin associated protein (LAP), fibronectin (Fn), transferrin receptor (TfnR), alpha 5 integrin, alpha 6 integrin, alpha v integrin, beta 1 integrin, and beta 5 integrin. Caspase-3 activity was assayed as described in Example 1.

In assay [11] the test system is HEK 293 cells transfected with dominant negative inserts. Put plainly: Co-apoptotic activity in cells with blocked signal transduction. Particulars: AktDN, PTEN, ILKdn, rafDN inserts; with paclitaxel; FIG. 15. Format: cell-based, human. The procedure:
HEK 293 cells were transfected with pUSEamp, or pUSEamp carrying a Akt dominant negative (AktDN), PTEN, ILK dominant negative (ILKdn) or raf dominant negative (rafDN) insert (Upstate Biotechnologies). The cells were cultured as described in Example 10 (including paclitaxel), with or without MBD2.

The subject of a further assay is MA16C cells. Put plainly: Sensitization to low dose doxorubicin, caspase-3. The format is cell-based. Particulars: doxorubicin 75 ng/ml, FIG. 16A. The procedure: MA16C cells were cultured in the presence of MDB2 and a low dose of doxorubicin (75 ng/ml). Apoptosis was assayed using the caspase-3 assay as described in Example 1.
The subject of a further assay is MDA-MB-231 cells. The experiment in a line: Sensitization to low dose paclitaxel, NMP levels. Format: cell-based. The settings on record: paclitaxel 100 ng/ml, 50 ng/ml peptide, FIG. 16B. The procedure:
MDA-MB-231 cells were cultured in the presence of low dose paclitaxel (100 ng/ml) with and without MDB2 (50 ng/ml). Apoptosis was assayed by measuring NMP levels.

With `CN(C)CCCN1c2ccccc2Sc2ccc(Cl)cc21` [chlorpromazine], the “effect on nuclear translocation of MBD peptides” value in the assay with HEK293 cells [1] is “inhibit nuclear translocation of MBD peptides”.

For the compound QCRPSEGGKRGFCW [MBD3], in the assay on HEK 293 cells [2], the “Apoptotic Activity” value was below 5 arbitrary caspase-3 units. In [3], this compound returned a Metal-binding of 100 percentage.

As for “QCRPSKGRKRGFCWAVDKYG (cysteine pairing not given here; also: biotinylated, position not given here) [MBD20, tested biotinylated with streptavidin-HRP]”, the “nuclear mobilization of streptavidin-HRP conjugate compared with MBD9” value in the assay with HEK293 cells [4] is “far more efficiently”.

Turning to QCRPSKGRKRGFC [MBD13], the “Apoptotic Activity” value with HEK 293 cells [2] is reported as 10-40 arbitrary caspase-3 units.

On to DKKGFYKKKQCRPSKGRKRGFCW [MBD1], for which the “pro-apoptotic activity” value in the assay on HEK293 cells [5] (FIG. 4A/4B) is on record as “dramatic lowering of pro-apoptotic activity”. The “imidazole concentration that elutes the peptide” value in assay [6] came to 60 mM. Moreover, the “Apoptotic Activity” value in the assay on HEK 293 cells [2] is 10-15 arbitrary caspase-3 units. In assay [3], this compound yielded a Metal-binding of 22 percentage.

As for `COc1cccc2c1C(=O)c1c(O)c3c(c(O)c1C2=O)C[C@@](O)(C(=O)CO)C[C@@H]3O[C@H]1C[C@H](N)[C@H](O)[C@H](C)O1` [DOX, doxorubicin, reference compound], in [7] (IGFBP-3 4 mg/kg/day sc 21 days, doxorubicin 2 mg/kg iv days 1 and 8), the “Tumor Weight” value is recorded as 1966 + 677 mg. For the same compound, the “Lung Metastases” value in assay [7] (animals with metastases/animals) is recorded as 0/12. This compound showed a Caspase-3 in assay [7] (tumors removed at day 21) of 7.88 ± 6.27.

CRPSKGRKRGFCW [MBD12]: in the assay with HEK 293 cells [2], the “Apoptotic Activity” value is listed as 10-40 arbitrary caspase-3 units.

Consider “KKGFYKKKQCRPSKGRKRGFCWAVDKYG (cysteine pairing not given here; also: biotinylated, position not given here) [MBD21, tested biotinylated with streptavidin-HRP]”, for which the “nuclear mobilization of streptavidin-HRP conjugate compared with MBD9” value in the assay with HEK293 cells [4] is “far more efficiently”.

As to KKGFYKKKQCRPSKGRKRGFCWNGRK [MBD9], the “Apoptotic Activity” value in the assay on HEK 293 cells [2] worked out at 149 arbitrary caspase-3 units. This compound displayed a Metal-binding in assay [3] of 45 percentage.

Turning to QCRPSKGRKRGFCWNGR [MBD7], in the assay on HEK 293 cells [2], the “Apoptotic Activity” value was determined as 89 arbitrary caspase-3 units. In assay [3], this compound gave a Metal-binding of 11 percentage.

On to CRPSKGRKRGFC [MBD4], for which, in the assay on HEK 293 cells [2], the “Apoptotic Activity” value is reported as 10-15 arbitrary caspase-3 units. In [3], the Metal-binding worked out at 92 percentage.

As for `C[C@@H]1[C@H](O)[C@@H](C)/C=C/C=C/CC/C=C/C=C/C=C/C=C/C(O[C@H]2O[C@H](C)[C@@H](O)[C@H](N)[C@@H]2O)CC2O[C@](O)(CC(O)C(O)CCC(O)CC(O)CC(O)CC(=O)O[C@H]1C)CC(O)C2C(=O)O` (some centres unmarked) [nystatin], the “effect on nuclear translocation of MBD peptides” value in the assay on HEK293 cells [1] was “inhibit nuclear translocation of MBD peptides”.

Regarding KKEKDIMKKTIQCRPSKGRKRGFCWNGR [MBD10], in the assay with HEK 293 cells [2], the “Apoptotic Activity” value was found to be 127 arbitrary caspase-3 units.

Take QCRPSKGRKRGFCW [MBD2]: the “pro-apoptotic activity relative to intact IGFBP-3 or a longer peptide” value in the assay with HEK293 cells [5] (on a weight basis, FIG. 4B) is reported as 3-4 ×. Also, in assay [6], the “binding to the column” value is “binds metal more tightly” and the “imidazole concentration necessary to elute the peptide” value is 1 M. Besides, in the assay with HEK 293 cells [2], the “Apoptotic Activity” value amounted to 100 arbitrary caspase-3 units. In assay [3], the Metal-binding is 66 percentage. The “co-apoptotic activity with Fibrinogen” value with HEK293 cells [8] (Fibrinogen 200 ng/ml) was 67.5 arbitrary caspase-3 units. In addition, in the assay on HEK293 cells [8] (Fibronectin 200 ng/ml), the “co-apoptotic activity with Fibronectin” value is 98.3 arbitrary caspase-3 units. In addition, the “co-apoptotic activity, plasma protein none” value with HEK293 cells [8] (no plasma protein) amounted to 100.0 arbitrary caspase-3 units. Also, the “IGF dependence of pro-apoptotic activity” value in the assay on HEK 293 cells [9] (0.3 ng/ml paclitaxel, alone or with Y60L-IGF-I, FIG. 11C) is listed as “independent of the presence of IGF”. In the assay on HEK 293 cells [9] (low serum or paclitaxel, 50 ng/ml, FIGS. 11A, 11B), the “pro-apoptotic activity under stressed conditions” value is “nearly identical”. Besides, the “pro-apoptotic activity with anti-adhesion protein antibodies” value in the assay on HEK 293 cells [10] is “inhibited by antibodies against integrins and integrin-associated proteins”. Further, the “pro-apoptotic activity in cells with blocked pathways” value in assay [11] is on record as “inhibited in cells in which the PI3K/ILK kinase signal transduction pathway is blocked, but not in cells where the MAPK signal transduction pathway is blocked”. For the same compound, the “sensitization to doxorubicin” value in the assay with MA16C cells is on record as “sensitizes MA16C mammary adenocarcinoma cells to low doses of doxorubicin”. Moreover, in the assay on MDA-MB-231 cells, the “sensitization to paclitaxel” value was “sensitizes MDA-MB-231 cells to low doses of paclitaxel”.

In the case of QCKPSRGRKRGICW [BP5n1s], the “Apoptotic Activity” value in the assay with HEK 293 cells [2] was below 5 arbitrary caspase-3 units. Also, the Metal-binding in [3] came out at 28 percentage.

For GFYKKKQCRPSKGRKRGFCW [MBD5], in the assay on HEK 293 cells [2], the “Apoptotic Activity” value is on record as 10-15 arbitrary caspase-3 units. The Metal-binding in assay [3] is on record as 95 percentage.

Turning to QCKMSLNGQRGECW [BP2n1s], the “Apoptotic Activity” value with HEK 293 cells [2] is listed as below 5 arbitrary caspase-3 units.

The values are drawn from patent US6914049B2, “IGF-binding protein-derived peptide or small molecule” (Bioexpertise, LLC, priority 2001, dated 2005).
